Assay results published in paper PMC10608790, “Structural Diversity and Biological Activity of Cyanopeptolins Produced by Nostoc edaphicum CCNP1411” (Marine Drugs, 2023).
Where two headings read alike, the source gives them in different places.

Assays:
elastase [1] = target: T1, elastase (Sus scrofa, UniProt P00772); experiment: Elastase inhibition assay; assay type: biochemical; settings: for IC50: read-out: E (elastase) IC50; for E (elastase) inhibition class: class symbol instead of IC50
Experimental: (§1) The enzyme inhibitory activity of cyanopeptolins was assayed against trypsin [108], chymotrypsin, thrombin [109], and elastase as described before. In brief, the samples were prepared and serially diluted (1 mg, 1:1—1:10,000 times) in 1% DMSO; the standard inhibitors: aprotinin (trypsin and chymotrypsin) AEBSF 4-(2-aminoethyl)benzenesulfonyl fluoride hydrochloride (thrombin), elastatinal (elastase) (all from Sigma Aldrich; St. Louis, MO, USA) were also prepared in 1% DMSO. DMSO (1%) without the addition of the enzyme served as a negative control. All tests were carried out in triplicates. After the incubation of the assay mixtures, the absorbances were measured at 405 nm (Varioskan Flash Thermo Fisher Scientific OY, Vantaa, Finland). The reduction in enzyme activity greater than 50% was considered as significant.

thrombin = thrombin (Homo sapiens, UniProt P00734); experiment: Thrombin inhibition assay; assay type: biochemical; settings: highest concentration in the assay 45 µg × mL−1
Experimental: as §1

[2] = system: human cervical cancer (HeLa) cell line; experiment: MTT assay on HeLa cells; assay type: cell-based; settings: 200 µg × mL−1, 24 h
Experimental: The cytotoxic activity of the selected 17 CPs against the HeLa cervical cancer cell line (Merck KGaA, Darmstadt, Germany) was assessed with the MTT (3-(4,5-dimethylthiazole-2-yl)-2,5-diphenyltetrazolium bromide) assay according to Felczykowska et al.. HeLa cells were seeded at 4 × 10^3 cells per well in DMEM medium (Merck KGaA) supplemented with 10% (v/v) fetal bovine serum (Merck KGaA) and penicillin-streptomycin solution (1% v/v, stock solution 50 u and 0.05 mg × mL^−1, respectively; Merck KGaA). Cells were allowed to attach overnight, and then the tested compounds prepared in 1% DMSO were added. After incubation (24 h), 25 µL of MTT solution (4 mg × mL^−1; Merck KGaA) were added and then the samples were incubated for another 4 h. The formazan crystals were dissolved with 100% DMSO and absorbance was measured with Spectramax i3 (Molecular Deviecs, LLC San Jose, CA, USA). The reduction in cell viability greater than 60% was considered as significant.

breast cancer cell line = system: breast cancer cell line; set-up: method as in PMID 29949853; settings: up to 500 µg × mL−1; cited from earlier work
chymotrypsin [3] = target: T2, chymotrypsin (Bos taurus, UniProt P00766); set-up: method as in PMID 29949853; settings: results published earlier; read-out: CHY (chymotrypsin) IC50, value marked *; cited from earlier work
breast cancer cells = system: breast cancer cells; set-up: method as in PMID 29405541; settings: cited from earlier work
H-460 lung cancer cells = system: H-460 lung cancer cells; set-up: method as in PMID 18163584; settings: cited from earlier work
[4] = system: neuro-2a neuroblastoma cells; set-up: method as in PMID 18163584; settings: cited from earlier work
[5] = system: KB human epithelial carcinoma cells; set-up: method as in PMID 12762794; settings: cited from earlier work
enzymes = system: enzymes; set-up: method as in PMID 20028081; settings: cited from earlier work
trypsin = target: T3, trypsin (Bos taurus, UniProt P00760); experiment: Trypsin inhibition assay; assay type: biochemical; settings: for activity against serine proteases (in words): Arg2-containing CPs lacking the side-chain, Table 1 enzymes; for TRY (trypsin) inhibition class: class symbol instead of IC50
T3 sequence (P00760 24-246): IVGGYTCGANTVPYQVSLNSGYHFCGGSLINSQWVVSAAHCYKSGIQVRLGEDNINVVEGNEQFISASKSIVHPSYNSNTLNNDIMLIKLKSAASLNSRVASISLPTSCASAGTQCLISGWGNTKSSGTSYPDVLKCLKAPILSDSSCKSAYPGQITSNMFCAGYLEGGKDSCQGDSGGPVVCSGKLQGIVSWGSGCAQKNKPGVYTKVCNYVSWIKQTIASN
Experimental: as §1

chymotrypsin [6] = target: T2, chymotrypsin; experiment: Chymotrypsin inhibition assay; assay type: biochemical; settings: class symbol instead of IC50
Experimental: as §1, with “In” for “The enzyme inhibitory activity of cyanopeptolins was assayed against trypsin [108], chymotrypsin, thrombin [109], and elastase as described before. In”

elastase [7] = target: T1, elastase; set-up: method as in doi:10.1016/j.tet.2019.04.046; settings: cited from earlier work
HeLa S3 cells = system: HeLa S3 cells; set-up: method as in doi:10.1016/j.tet.2019.04.046; settings: cited from earlier work

T1 sequence (P00772 27-266): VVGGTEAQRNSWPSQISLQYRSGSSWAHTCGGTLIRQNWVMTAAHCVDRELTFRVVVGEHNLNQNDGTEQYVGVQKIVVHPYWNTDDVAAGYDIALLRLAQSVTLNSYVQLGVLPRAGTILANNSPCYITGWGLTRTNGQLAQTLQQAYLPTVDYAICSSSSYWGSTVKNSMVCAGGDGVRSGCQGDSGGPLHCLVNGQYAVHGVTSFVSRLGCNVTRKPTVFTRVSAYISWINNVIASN

In the case of `CCCC(=O)NC(CC(=O)O)C(=O)NC1C(=O)NC(CC(C)C)C(=O)NC2CCC(O)N(C2=O)C(Cc2ccccc2)C(=O)N(C)C(Cc2ccccc2)C(=O)NC(C(C)C)C(=O)OC1C` (centres unmarked) [CP 919, [Thr + Leu + Ahp + Phe + MePhe + Val]Asp + BA], the IC50 (elastase [1]) is reported as 5.71 µM, the “TRB (thrombin) inhibition class” value (thrombin) is reported as “− (not active (inhibition below 50%))” and the “reduction in cell viability versus control” value (“reduction” below) [2] is reported as 97.6%.

In the case of `CC(=O)NC(CC(=O)O)C(=O)NC1C(=O)NC(Cc2ccc(O)cc2)C(=O)NC2CCC(O)N(C2=O)C(Cc2ccccc2)C(=O)N(C)C(Cc2ccccc2)C(=O)NC(C(C)C)C(=O)OC1C` (centres unmarked) [CP 941, [Thr + Tyr + Ahp + Phe + MePhe + Val]Asp + Ac], the “E (elastase) inhibition class” value (elastase [1]) is reported as “− (not active (inhibition below 50%))” and the “TRB (thrombin) inhibition class” value (thrombin) is reported as “− (not active (inhibition below 50%))”.

With `CCCC(=O)NC(CC(=O)O)C(=O)NC1C(=O)NC(CC(C)C)C(=O)NC2CCC(O)N(C2=O)C(Cc2ccccc2)C(=O)N(C)C(Cc2ccc(OC)cc2)C(=O)NC(C(C)C)C(=O)OC1C` (centres unmarked) [CP 949, [Thr + Leu + Ahp + Phe + diMeTyr + Val]Asp + BA] the IC50 (elastase [1]) was 3.32 µM, the “TRB (thrombin) inhibition class” value (thrombin) was “− (not active (inhibition below 50%))” and the “reduction” value [2] was 71.5%.

For `CCCC(=O)N[C@@H](CC(=O)O)C(=O)N[C@@H]1C(=O)N[C@@H](CCCNC(=N)N)C(=O)N[C@H]2CC[C@@H](O)N(C2=O)[C@@H](Cc2ccccc2)C(=O)N(C)[C@@H](Cc2ccccc2)C(=O)N[C@@H](C(C)C)C(=O)O[C@@H]1C` [CP 962, [Thr + Arg + Ahp + Phe + MePhe + Val]Asp + BA], the “cytotoxic activity (in words)” value (breast cancer cell line) is given as “no effects were observed”.

For `CCCC(=O)N[C@@H](CC(=O)O)C(=O)N[C@@H]1C(=O)N[C@@H](CCCNC(=N)N)C(=O)N[C@H]2CC[C@@H](O)N(C2=O)[C@@H](Cc2ccccc2)C(=O)N(C)[C@@H](Cc2ccc(O)cc2)C(=O)N[C@@H](C(C)C)C(=O)O[C@@H]1C` [CP 978, [Thr + Arg + Ahp + Phe + MeTyr + Val]Asp + BA], the “reduction” value [2] is listed as 62.5% and the IC50 (chymotrypsin [3]) is listed as 3.8 µM.

With `CCCC(=O)NC(CC(=O)O)C(=O)NC1C(=O)NC(Cc2ccccc2)C(=O)NC2CCC(O)N(C2=O)C(Cc2ccccc2)C(=O)N(C)C(Cc2ccc(OC)cc2)C(=O)NC(C(C)C)C(=O)OC1C` (centres unmarked) [CP 983, [Thr + Phe + Ahp + Phe + diMeTyr + Val]Asp + BA] the “E (elastase) inhibition class” value (elastase [1]) was “− (not active (inhibition below 50%))” and the “TRB (thrombin) inhibition class” value (thrombin) was “− (not active (inhibition below 50%))”.

In the case of `CCCC(=O)N[C@@H](CC(=O)O)C(=O)N[C@@H]1C(=O)N[C@@H](Cc2ccc(O)cc2)C(=O)N[C@H]2CC[C@@H](O)N(C2=O)[C@@H](Cc2ccccc2)C(=O)N(C)[C@@H](Cc2ccc(O)cc2)C(=O)N[C@@H](C(C)C)C(=O)O[C@@H]1C` [CP 985, [Thr + Tyr + Ahp + Phe + MeTyr + Val]Asp + BA], the “cytotoxic activity (in words)” value (breast cancer cell line) is listed as “no effects were observed”.

With `CCCCCC(=O)NC(CC(=O)O)C(=O)NC1C(=O)NC(CCCNC(=N)N)C(=O)NC2CCC(O)N(C2=O)C(Cc2ccccc2)C(=O)N(C)C(Cc2ccccc2)C(=O)NC(C(C)C)C(=O)OC1C` (centres unmarked) [CP 990, [Thr + Arg + Ahp + Phe + MePhe + Val]Asp + HA] the “E (elastase) inhibition class” value (elastase [1]) was “− (not active (inhibition below 50%))” and the “TRB (thrombin) inhibition class” value (thrombin) was “− (not active (inhibition below 50%))”.

With `CCCC(=O)NC(CC(=O)O)C(=O)NC1C(=O)NC(Cc2ccc(O)cc2)C(=O)NC2CCC(O)N(C2=O)C(Cc2ccccc2)C(=O)N(C)C(Cc2ccc(OC)cc2)C(=O)NC(C(C)C)C(=O)OC1C` (centres unmarked) [CP 999, [Thr + Tyr + Ahp + Phe + diMeTyr + Val]Asp + BA] the “E (elastase) inhibition class” value (elastase [1]) was “− (not active (inhibition below 50%))” and the “TRB (thrombin) inhibition class” value (thrombin) was “− (not active (inhibition below 50%))”.

In the case of `C/C=C1\NC(=O)[C@@H](NC(=O)[C@@H](NC(=O)[C@H](C)NC(=O)CCC)[C@@H](C)O)[C@@H](C)OC(=O)[C@H](C(C)C)NC(=O)[C@H](Cc2ccc(O)cc2)N(C)C(=O)[C@H](Cc2ccccc2)N2C(=O)[C@H](CC[C@H]2O)NC1=O` [molassamide], the “effect on elastase-mediated migration (in words)” value (breast cancer cells) is listed as “inhibiting”.

For `CCCC(=O)N[C@@H](CCC(N)=O)C(=O)N[C@@H]1C(=O)N[C@@H](CCCNC(N)=O)C(=O)N[C@H]2CC[C@@H](O)N(C2=O)[C@@H]([C@@H](C)CC)C(=O)N(C)[C@@H](Cc2ccc(OC)c(Br)c2)C(=O)N[C@@H](C(C)C)C(=O)O[C@@H]1C` [symplocamide A], the “cytotoxic effect (in words)” value (H-460 lung cancer cells) is listed as “affected” and the “cytotoxic effect (in words)” value [4] is listed as “affected”.

In the case of `CCCC(=O)N[C@H](C(=O)N[C@@H]1C(=O)N[C@@H](CC(C)C)C(=O)N[C@H]2CC[C@@H](O)N(C2=O)[C@@H](CC(C)C)C(=O)N(C)[C@@H](Cc2ccccc2)C(=O)N[C@@H](C(C)C)C(=O)O[C@@H]1C)C(C)C` [tasipeptin A], the “cytotoxic effect (in words)” value [5] is given as “cytotoxic”.

In the case of `CCCC(=O)N[C@@H]1C(=O)N[C@@H](CC(C)C)C(=O)N[C@H]2CC[C@@H](O)N(C2=O)[C@@H](CC(C)C)C(=O)N(C)[C@@H](Cc2ccccc2)C(=O)N[C@@H](C(C)C)C(=O)O[C@@H]1C` [tasipeptin B], the “cytotoxic effect (in words)” value [5] is given as “cytotoxic”.

In the case of Micropeptin MZ771, the “effect on the activity of enzymes (in words)” value (enzymes) is listed as “did not affect the activity of enzymes”.

In the case of “[Thr + Arg + Ahp + Phe + MePhe + Val] [CP 778]”, the “activity against serine proteases (in words)” value (trypsin) is reported as “not active”, the “TRY (trypsin) inhibition class” value (trypsin) is reported as “− (not active (inhibition below 50%))” and the “CHY (chymotrypsin) inhibition class” value (chymotrypsin [6]) is reported as “− (not active (inhibition below 50%))”. For the same compound, the “E (elastase) inhibition class” value (elastase [1]) was “− (not active (inhibition below 50%))” and the “TRB (thrombin) inhibition class” value (thrombin) was “− (not active (inhibition below 50%))”.

With “[Thr + Arg + Ahp + Phe + diMeTyr + Val] [CP 809]” the “activity against serine proteases (in words)” value (trypsin) was “not active”, the “TRY (trypsin) inhibition class” value (trypsin) was “− (not active (inhibition below 50%))” and the “CHY (chymotrypsin) inhibition class” value (chymotrypsin [6]) was “− (not active (inhibition below 50%))”. For the same compound, the “E (elastase) inhibition class” value (elastase [1]) was “− (not active (inhibition below 50%))” and the “TRB (thrombin) inhibition class” value (thrombin) was “− (not active (inhibition below 50%))”.

For “[Thr + Phe + Ahp + Phe + diMeTyr + Val]Asp + HA [CP 1011]”, the “TRY (trypsin) inhibition class” value (trypsin) was “− (not active (inhibition below 50%))”, the “CHY (chymotrypsin) inhibition class” value (chymotrypsin [6]) was “− (not active (inhibition below 50%))” and the “E (elastase) inhibition class” value (elastase [1]) was “− (not active (inhibition below 50%))”. For the same compound, the “TRB (thrombin) inhibition class” value (thrombin) was “− (not active (inhibition below 50%))”.

With “[Thr + Tyr + Ahp + Phe + MePhe + Val]Asp + OA [CP 1025]” the “TRY (trypsin) inhibition class” value (trypsin) was “− (not active (inhibition below 50%))”, the “CHY (chymotrypsin) inhibition class” value (chymotrypsin [6]) was “+/− (low activity (inhibition between 50 and 60%))” and the “E (elastase) inhibition class” value (elastase [1]) was “− (not active (inhibition below 50%))”. The “TRB (thrombin) inhibition class” value (thrombin) was “− (not active (inhibition below 50%))”.

For kyanamide, the IC50 (elastase [7]) is listed as 0.00013 µM and the “cytotoxic effect (in words)” value (HeLa S3 cells) is listed as “moderately cytotoxic”.
